Target: T1, Cloned human M1 receptor (CHRM1) stably expressed in HEK293 cells (Homo sapiens, UniProt P11229)
T1 construct: expressed in transfected cells; host or cells: HEK293
T1 sequence (P11229 1-460): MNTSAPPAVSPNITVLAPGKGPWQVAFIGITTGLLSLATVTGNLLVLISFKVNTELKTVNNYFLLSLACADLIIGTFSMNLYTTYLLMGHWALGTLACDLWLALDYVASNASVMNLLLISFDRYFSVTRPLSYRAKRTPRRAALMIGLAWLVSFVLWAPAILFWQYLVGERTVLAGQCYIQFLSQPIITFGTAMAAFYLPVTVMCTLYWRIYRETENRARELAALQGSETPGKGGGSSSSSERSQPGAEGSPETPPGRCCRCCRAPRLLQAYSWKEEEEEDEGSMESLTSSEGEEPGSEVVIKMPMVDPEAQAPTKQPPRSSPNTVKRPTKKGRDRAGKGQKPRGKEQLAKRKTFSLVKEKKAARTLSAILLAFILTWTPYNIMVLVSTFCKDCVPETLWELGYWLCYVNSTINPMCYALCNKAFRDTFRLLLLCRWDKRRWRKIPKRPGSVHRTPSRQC
Assay: CHRM1 Ca++ Flux Assay (agonist mode, FDSS 7000EX)
Format: cell-based
Conditions: for M1 FDSS PA: Percent Activity; for EC50: geometric mean if tested more than once
Experimental: The above examples were characterized by measuring the intracellular mobilization of Ca++ ions caused by signaling events mediated by the receptor. The Intra-cellular Calcium flux levels were captured by the highly sensitive Ca++ indicator, Calcium Assay Kit (BD Biosciences, Catalog Number 640178). The fluorescent activity from all receptors were monitored by the fluorescent imager, FDSS 7000EX (Hamamatsu) over a span of 3 minutes.
Cloned human M1 receptor (CHRM1) was stably expressed in HEK293 cells and were grown and maintained in a monolayer culture with DMEM/High Glucose (Life Technologies) supplemented with 10% Fetal Bovine Serum, 1× Pen-Strep, and 0.5 mg/mL Geneticin in a humidified atmosphere (5% CO2) at 37° C. The cultures were grown to 90% confluency in T150 flasks (Corning) and washed with 1×DPBS and lifted with 0.05% Trypsin (Life Technologies). The cells were then spun (1K rpm, 3 minutes) and frozen using Recovery Cell Culture Freezing Media (Gibco Technologies). Cells were stored in liquid nitrogen and thawed a day before the assay.
Prior to the day of the assay, stable HEK293 M1 cells were thawed and plated on 384 well black walled clear bottom TC treated plates (Greiner Cat #781091) at 25K cells/well with DMEM/High Glucose supplemented with 10% FBS (Hyclone) Pen-Strep (Life Technologies) and kept overnight in a humidified atmosphere (5% CO2) at 37° C. The following day, cells were loaded with 20 uL Ca^++ dye (BD Biosciences) using Loading Buffer (HBSS +Ca/+Mg, 20 mM HEPES) and placed back in cell incubator for a minimum of 1 hour. The dye was replaced with 45 μL Assay Buffer (HBSS −Ca/−Mg, 20 mM HEPES) and kept at room temperature prior to running on cell imager. Compounds were prepared in Assay Buffer and 5 uL was added to the cells. The FDSS 7000EX (Hamamatsu) was used to acquire Ca++ traces for 3 minutes from cells treated with 11 point dose in triplicate in order to generate dose response curves in agonist mode. All compounds were serially diluted in DMSO then prepared in Assay Buffer for Ca^++ flux studies. The dose response curves were generated from the average of triplicate wells obtained from each data point and used a non-linear regression of four parameter dose response algorithm. The Percent Activity (PA) was measured to EC100 of Carbachol.

Compound	M1 FDSS PA [%]	EC50 [nM]
O[C@H]1CC[C@@H](c2ccccc2C2CCN([C@@H]3CCC4(C3)CN(c3nnco3)C4)CC2)CC1 (single isomer, unassigned) [Example 2N, (1S,4s)-4-(2-(1-((R)-2-(1,3,4-oxadiazol-2-yl)-2-azaspiro[3.4]octan-6-yl)piperidin-4-yl)phenyl)cyclohexan-1-ol or (1R,4r)-4-(2-(1-((R)-2-(1,3,4-oxadiazol-2-yl)-2-azaspiro[3.4]octan-6-yl)piperidin-4-yl)phenyl)cyclohexan-1-ol]	69	302
OC1CCC(c2ccccc2C2CCN([C@@H]3CCC4(C3)CN(c3nnco3)C4)CC2)CC1 (single isomer, unassigned) [Example 2O, (1s,4r)-4-(2-(1-((R)-2-(1,3,4-oxadiazol-2-yl)-2-azaspiro[3.4]octan-6-yl)piperidin-4-yl)phenyl)cyclohexan-1-ol or (1r,4r)-4-(2-(1-((R)-2-(1,3,4-oxadiazol-2-yl)-2-azaspiro[3.4]octan-6-yl)piperidin-4-yl)phenyl)cyclohexan-1-ol]	77	81
O=C(N1CC2(CC[C@@H](N3CCC(c4ccccc4OCCC(F)(F)F)CC3)C2)C1)C1(F)CC1 (single isomer, unassigned) [Example 7AA, (R)-(1-fluorocyclopropyl)(6-(4-(2-(3,3,3-trifluoropropoxy)phenyl)piperidin-1-yl)-2-azaspiro[3.4]octan-2-yl)methanone or (S)-(1-fluorocyclopropyl)(6-(4-(2-(3,3,3-trifluoropropoxy)phenyl)piperidin-1-yl)-2-azaspiro[3.4]octan-2-yl)methanone]	57	139
CC(C)(O)CCOc1ccccc1C1CCN([C@@H]2CCC3(C2)CN(C(=O)C2(F)CC2)C3)CC1 (single isomer, unassigned) [Example 7BB, (R)-(1-fluorocyclopropyl)(6-(4-(2-(3-hydroxy-3-methylbutoxy)phenyl)piperidin-1-yl)-2-azaspiro[3.4]octan-2-yl)methanone or (S)-(1-fluorocyclopropyl)(6-(4-(2-(3-hydroxy-3-methylbutoxy)phenyl)piperidin-1-yl)-2-azaspiro[3.4]octan-2-yl)methanone]	55	13
COC(C)(C)CCOc1ccccc1C1CCN([C@@H]2CCC3(C2)CN(C(=O)C2(F)CC2)C3)CC1 (single isomer, unassigned) [Example 7FF, (R)-(1-fluorocyclopropyl)(6-(4-(2-(3-methoxy-3-methylbutoxy)phenyl)piperidin-1-yl)-2-azaspiro[3.4]octan-2-yl)methanone or (S)-(1-fluorocyclopropyl)(6-(4-(2-(3-methoxy-3-methylbutoxy)phenyl)piperidin-1-yl)-2-azaspiro[3.4]octan-2-yl)methanone]	7	182
O=C(N1CC2(CC[C@@H](N3CCC(c4ccccc4OCc4ncccn4)CC3)C2)C1)C1(F)CC1 (single isomer, unassigned) [Example 7M, (R)-(1-fluorocyclopropyl)(6-(4-(2-(pyrimidin-2-ylmethoxy)phenyl)piperidin-1-yl)-2-azaspiro[3.4]octan-2-yl)methanone or (S)-(1-fluorocyclopropyl)(6-(4-(2-(pyrimidin-2-ylmethoxy)phenyl)piperidin-1-yl)-2-azaspiro[3.4]octan-2-yl)methanone]	84	10
O=C(N1CC2(CC[C@@H](N3CCC(c4ccccc4OCCO)CC3)C2)C1)C1(F)CC1 (single isomer, unassigned) [Example 7N, (R)-(1-fluorocyclopropyl)(6-(4-(2-(2-hydroxyethoxy)phenyl)piperidin-1-yl)-2-azaspiro[3.4]octan-2-yl)methanone or (S)-(1-fluorocyclopropyl)(6-(4-(2-(2-hydroxyethoxy)phenyl)piperidin-1-yl)-2-azaspiro[3.4]octan-2-yl)methanone]	45	22
O=C(N1CC2(CC[C@@H](N3CCC(c4ccccc4OCC4CC4)CC3)C2)C1)C1(F)CC1 (single isomer, unassigned) [Example 7O, (R)-(6-(4-(2-(cyclopropylmethoxy)phenyl)piperidin-1-yl)-2-azaspiro[3.4]octan-2-yl)(1-fluorocyclopropyl)methanone or (R)-(6-(4-(2-(cyclopropylmethoxy)phenyl)piperidin-1-yl)-2-azaspiro[3.4]octan-2-yl)(1-fluorocyclopropyl)methanone]	57	37
O=C1CCCN1CCOc1ccccc1C1CCN([C@@H]2CCC3(C2)CN(C(=O)C2(F)CC2)C3)CC1.O=CO (single isomer, unassigned) [Example 7P, (R)-1-(2-(2-(1-(2-(1-fluorocyclopropane-1-carbonyl)-2-azaspiro[3.4]octan-6-yl)piperidin-4-yl)phenoxy)ethyl)pyrrolidin-2-one formate salt or (S)-1-(2-(2-(1-(2-(1-fluorocyclopropane-1-carbonyl)-2-azaspiro[3.4]octan-6-yl)piperidin-4-yl)phenoxy)ethyl)pyrrolidin-2-one formate salt]	46	29
O=C(N1CC2(CC[C@@H](N3CCC(c4ccccc4OCC4CCOCC4)CC3)C2)C1)C1(F)CC1 (single isomer, unassigned) [Example 7Q, (R)-(1-fluorocyclopropyl)(6-(4-(2-((tetrahydro-2H-pyran-4-yl)methoxy)phenyl)piperidin-1-yl)-2-azaspiro[3.4]octan-2-yl)methanone or (S)-(1-fluorocyclopropyl)(6-(4-(2-((tetrahydro-2H-pyran-4-yl)methoxy)phenyl)piperidin-1-yl)-2-azaspiro[3.4]octan-2-yl)methanone]	37	135
Cc1nnc(COc2ccccc2C2CCN([C@@H]3CCC4(C3)CN(C(=O)C3(F)CC3)C4)CC2)s1 (single isomer, unassigned) [Example 7R, (R)-(1-fluorocyclopropyl)(6-(4-(2-((5-methyl-1,3,4-thiadiazol-2-yl)methoxy)phenyl)piperidin-1-yl)-2-azaspiro[3.4]octan-2-yl)methanone or (S)-(1-fluorocyclopropyl)(6-(4-(2-((5-methyl-1,3,4-thiadiazol-2-yl)methoxy)phenyl)piperidin-1-yl)-2-azaspiro[3.4]octan-2-yl)methanone]	0	> 25000
CCOc1ccccc1C1CCN([C@@H]2CCC3(C2)CN(C(=O)C2(F)CC2)C3)CC1 (single isomer, unassigned) [Example 7S, (R)-(6-(4-(2-ethoxyphenyl)piperidin-1-yl)-2-azaspiro[3.4]octan-2-yl)(1-fluorocyclopropyl)methanone or (S)-(6-(4-(2-ethoxyphenyl)piperidin-1-yl)-2-azaspiro[3.4]octan-2-yl)(1-fluorocyclopropyl)methanone]	0	> 25000
O=C(N1CC2(CC[C@@H](N3CCC(c4ccccc4OCC4CC4)CC3)C2)C1)C1(F)CC1 (single isomer, unassigned) [Example 7T, (R)-(6-(4-(2-(cyclopropylmethoxy)phenyl)piperidin-1-yl)-2-azaspiro[3.4]octan-2-yl)(1-fluorocyclopropyl)methanone or (R)-(6-(4-(2-(cyclopropylmethoxy)phenyl)piperidin-1-yl)-2-azaspiro[3.4]octan-2-yl)(1-fluorocyclopropyl)methanone]	32	4350
Cc1noc(C)c1COc1ccccc1C1CCN([C@@H]2CCC3(C2)CN(C(=O)C2(F)CC2)C3)CC1 (single isomer, unassigned) [Example 7U, (R)-(6-(4-(2-((3,5-dimethylisoxazol-4-yl)methoxy)phenyl)piperidin-1-yl)-2-azaspiro[3.4]octan-2-yl)(1-fluorocyclopropyl)methanone or (S)-(6-(4-(2-((3,5-dimethylisoxazol-4-yl)methoxy)phenyl)piperidin-1-yl)-2-azaspiro[3.4]octan-2-yl)(1-fluorocyclopropyl)methanone]	0	> 25000
